Data set [1] can be described thus: Single IP injection liver targeting in rat. Type of data set: in vivo. To be noted: 100 mg CE/kg single IP injection.
Data set [2] can be described thus: Liver araCTP and liver targeting with continuous i.v. infusion in rats. From the text:
A saline filled blunt PE-50 tubing catheter (Intramedic, Becton Dickinson, Sparks, Md.) was inserted into the jugular vein, exteriorized between the scapulae and connected to a swivel-tethering constant infusion system (Lomir Biomedical, Inc., Malone, N.Y. and Harvard Apparatus, Inc., South Natick, Mass.). The tubing was filled with heparinized saline and sealed, and the animals allowed to recover for one to seven days.
After the various durations of infusion the animals were anesthetized by intra-catheter injections of the anesthetic mix described above. Blood samples were obtained via cardiac puncture using a 23-gauge needle attached to a heparin coated 3 cc syringe.
(§1) In those studies, liver, plasma and bone marrow samples were obtained at necropsy to evaluate liver targeting.
(§2) Results are expressed as mean±standard error of the mean. When appropriate, AUC was calculated from time zero to the last time-point of the study. Liver targeting indices (LTIs) were calculated by dividing the liver araCTP AUC by the AUC for plasma araC (plasma LTI) or by the AUC for bone marrow araCTP (bone marrow LTI) for each compound. For the continuous infusion studies, the steady state araCTP levels were divided by the steady state plasma araC levels.

Data set [3] in a line: Single dose i.p. bolus liver levels / liver targeting in mice. The procedure:
At specified times post injection, mice were anesthetized and exsanguinated via cardiac puncture. The whole liver was removed, and snap-frozen in liquid nitrogen, and homogenized using a Polytron homogenizer PT 10/35 (Brinkmann Instruments, Westbury, N.Y.) in 3 volumes of 10% (v/v) perchloric acid (PCA). After a 5 min centrifugation at 2,500×g, 1 mL of supernatant was neutralized using 0.3 mL 3 M KOH/3 M KHCO3 and mixed thoroughly. Samples were then centrifuged for 5 minutes and resulting supernatants were treated with periodate in order to remove endogenous ribonucleotides which otherwise might interfere with araCTP detection. […] Resulting samples were analyzed by HPLC as described below.
To measure bone marrow araCTP, the bone marrow samples were flushed from the marrow cavities of femurs with 1.2 ml saline into pre-weighed Eppendorf tubes. After centrifugation for 20-30 seconds (Eppendorf microfuge, 14,000 rpm) and removal of the supernatant, 12 volumes of 3% PCA (v/v) were added to the bone marrow cell pellets. Samples were then vortexed until the pellet was well dissolved and centrifuged as above for 10 min. Ninety μL of extracted supernatant was neutralized to pH 7-8 using 30 μL 1 M KOH/1 M KHCO3 and again centrifuged. Resulting supernatants were periodate-treated as above.
Samples (50 μL) were injected onto the column in 70% 10 mM ammonium phosphate buffer and 30% 1 M ammonium phosphate buffer, both at pH 3.5 and containing 6% ethanol. […] A standard curve was prepared by adding known amounts of araCTP into PCA extracts from control liver or bone marrow prior to neutralizing, and preparing HPLC samples accordingly.
To obtain plasma, blood was transferred to heparinized micro-collection tubes and centrifuged in an Eppendorf microfuge at 14,000 rpm for 2 minutes. Resulting plasma was collected, placed on dry ice, and subsequently stored at −20° C. On the day of analysis, proteins were precipitated by adding 1 mL acetonitrile to 100 μL of plasma. After 10 min centrifugation (Eppendorf microfuge, 14,000 rpm), the supernatant was removed and dried in a Savant SpeedVac Plus SC110A. Samples were reconstituted with 110 μL of mobile phase buffer (20 mM KH2PO4, pH 4.5), sonicated for 5 min, and centrifuged for 30 seconds. […] AraC and prodrugs were detected by absorbance at 280 nm and quantitated using standard curves obtained with spiked plasma samples processed as above.
Results are expressed as mean±standard error of the mean. Data were analyzed by repeated measures ANOVA, followed by the Tukey HSD post-hoc test for comparisons at individual time points when appropriate. A p-value of less than 0.05 was considered statistically significant. Dotted lines in figures indicate LOQ (limit of quantitation) using the indicated HPLC method.
as §1, §2

The test system of the next data set is human liver microsomes. The data set is described as follows: Enzyme kinetics of prodrug activation to araCMP in human liver microsomes. Background: Liver microsomes are vesicles of endoplasmic reticulum, rich in cytochrome P450 enzymes.
The mark [4] stands for this setting: rats, 200 mg CE/kg/day continuous intravenous infusion.

Each structure is given as a SMILES string. Several values for one entry are separate records, joined by “and”; a condition that tells them apart may be missing. Identical values can stand only once.

By Vmax is commonly meant the top rate of the reaction or transport when substrate is in excess. For orientation: Km means the substrate concentration at which the rate is half of its maximum. As for `Nc1ccn([C@@H]2O[C@H](CO[P@@]3(=O)OCC[C@@H](c4ccncc4)O3)[C@@H](O)[C@@H]2O)c(=O)n1` [Compound A, 2(1H)-Pyrimidinone, 4-amino-1-[5-O-[(2R,4S)-2-oxido-4-(4-pyridinyl)-1,3,2-dioxaphosphorinan-2-yl]-β-D-arabinofuranosyl]], in data set [1], the “LTI (Liver/plasma)” value worked out at 19.2 nmol/g/μM and the “Liver araCTP Peak @ 1 hr” value is 267 nmol/g. For the same compound, the “reduction of peripheral exposure (liver targeting)” value in data set [2] (administered by continuous intravenous infusion) is roughly 10 fold. In data set [2] (setting [4]), the “LTI @ 24 hrs (Liver/plasma)” value was determined as 7.5 nmol/g/μM, the “Liver araCTP 24 hr” value worked out at 12.0 nmol/g, the “Liver araCTP @ 4 hr” value stood at 12.8 nmol/g and the “Plasma Prodrug steady state” value lay within 40 to 50 µM. For the same compound, the “Plasma araC steady state” value in data set [2] (setting [4]) was roughly 1.6 µM. Also, the “steady state liver araCTP levels by 4 hours” value in data set [2] (rats, continuous infusion 200 mg/kg/24 hours) was determined as 12.84 ± 1.50 nmol/g. Moreover, the “average liver araCTP for the remaining 44 hours” value in data set [2] (rats, continuous infusion 200 mg/kg/24 hours, 48 hr) worked out at 13 ± 1 nmol/g. Further, the “Liver araCTP Peak @ 1 hr” value in data set [3] (Mouse, 100 mg (cytarabine equivalents)/kg single IP injection) was 96 nmol/g and 70 nmol/g. Also, in data set [3] (Mouse, 100 mg CE/kg single IP, liver araCTP AUC / plasma araC AUC), the “LTI (Liver/plasma)” value was 27 nmol/g/μM and 19.5 nmol/g/μM. In data set [3] (administered intraperitoneally), the “reduction of peripheral exposure (liver targeting)” value is roughly 20 fold. In addition, in data set [3] (mice, bolus i.p. injection), the “liver araCTP levels relative to Compound B” value was roughly 2 fold and the “plasma araC levels relative to Compound B” value is reported as roughly 2 fold. Also, in data set [3] (mice, single i.p. bolus, 100 mg/kg CE), the “liver araCTP peak at 60 minutes post injection” value amounted to 69.89 ± 6.37 nmol/g. Moreover, the Vmax in the data set on human liver microsomes (activation to araCMP, 2 mg/mL human liver microsomes lot RQX, 1 mM NADPH, pH 7.4, 37° C, 5 min) came to 0.11 ± 0.02 nmol/min/mg. The Michaelis constant (Km) in the data set on human liver microsomes (activation to araCMP, human liver microsomes lot RQX) was 1.08 ± 0.27 mM. Further, the “intrinsic clearance / activation rate relative to Compound B” value in the data set with human liver microsomes (human liver microsomes lot RQX) amounted to 2.6 fold.

These data come from patent US7553826B2, “Cytarabine monophosphate prodrugs” (Metabasis Therapeutics, Inc., priority 2002, dated 2009).
